16 compounds from patent US20210198259A1, “HETEROCYCLIC DERIVATIVES AND USE THEREOF” (C&C RESEARCH LABORATORIES, priority 2018, published 2021) can be followed below.

Structures can show the parent of a compound that is named as a salt.

In the test the target is T1, human histamine 4 receptor (hH4R) (Homo sapiens, UniProt Q9H3N8).
T1 construct: purchased Multispan
T1 sequence (Q9H3N8 whole entry): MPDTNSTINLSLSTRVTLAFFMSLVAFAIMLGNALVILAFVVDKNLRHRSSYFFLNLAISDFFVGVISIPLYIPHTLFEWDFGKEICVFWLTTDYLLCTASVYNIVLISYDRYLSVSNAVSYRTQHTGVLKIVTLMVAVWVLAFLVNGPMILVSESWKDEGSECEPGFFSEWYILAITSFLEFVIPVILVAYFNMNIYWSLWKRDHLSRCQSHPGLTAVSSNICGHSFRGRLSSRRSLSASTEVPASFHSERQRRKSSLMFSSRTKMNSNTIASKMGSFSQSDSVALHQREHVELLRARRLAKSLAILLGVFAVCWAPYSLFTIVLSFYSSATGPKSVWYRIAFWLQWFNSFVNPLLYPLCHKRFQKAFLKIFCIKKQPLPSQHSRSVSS
The test is described as follows: Binding affinity of human histamine 4 receptor (hH4R), [3H] histamine displacement. The following applies: [3H] labeled histamine, hH4R-overexpressed cell membrane. On the procedure: The compounds prepared in the above Examples, the compound of Example 55 of International Publication No. WO 2010/030785 and the compound of Example 4 of International Publication No. WO 2013/048214 were diluted by 1,000 fold (v/w) with DMSO, and then 1 mL of the diluted compound solution was mixed with 99 mL of the analysis buffer solution (50 mM tris-HCl pH 7.4, 5 mM EDTA) to obtain concentration of 1 μM. […] of the prepared compound solution was transferred to each well of a 96-well plate, and then 20 mL of 100 μM histamine diluted with analysis buffer solution and 1% DMSO were transferred to each well to calculate non-specific binding and total binding degree. 15 μg of human histamine 4 receptor-overexpressed cell membrane (Multispan) was diluted into […] of analysis buffer solution and that was transferred to each well. [^3H] labeled histamine (PerkinElmer) was diluted into 10 nM concentration, 20 mL was allocated in each well, and then it was kept in a 27° C. incubator for 30 minutes. After the reaction, 100 mL of the mixture was transferred to a glass fiber plate in which 0.5% polyethylene amine was pre-soaked, and then non-binding [^3H] labeled histamine was removed in vacuum. After 6 times washing with 200 mL of washing buffer solution (50 mM tris-HCl, pH 7.4), the plate was dried in a 37° C. oven for 18 hours. […] of betaScint cocktail solution was added to each well, and after 10 minutes CPM (count per minute) value of [^3H] labeled histamine was measured by the use of Micro beta2™. The binding affinity (% inhibition) of the human histamine 4 receptor for the compounds of the present invention was analyzed by an Excel program, and the results of analysis are represented in Table 1.
For orientation: inhibition means the change of the read-out against control, counted positive when it falls. With `CNC1CN(C2=Nc3cnc(Cl)cc3N3CC(=O)N=C23)C1` [Example 23, 8-chloro-4-(3-(methylamino)azetidin-1-yl)imidazo[1.2-a]pyrido[3.4-e]pyrazin-2(1H)-one hydrochloride], the inhibition at 1 µM is 89.4%.

As for `CN1CCN(C2=Nc3ccc(N)cc3N3CC(=O)N=C23)CC1` [Example 11, 8-amino-4-(4-methylpiperazin-1-yl)imidazo[1,2-a]quinoxalin-2(1H)-one], the inhibition at 1 µM came to 44.8%. The figure for `CN1CCN(C2=Nc3ccc(Br)nc3N3CC(=O)N=C23)CC1` [Example 30, 2-bromo-6-(4-methylpiperazin-1-yl)imidazo[1,2-a]pyrido[3,2-e]pyrazin-8(9H)-one] is 93.2%; for `CNC1CN(C2=Nc3cnc(Br)cc3N3CC(=O)N=C23)C1` [Example 26, 8-bromo-4-(3-(methylamino)azetidin-1-yl)imidazo[1,2-a]pyrido[3,4-e]pyrazin-2(1H)-one] it is 93.4%; for `CN[C@H]1CCN(C2=Nc3ncc(Br)cc3N3CC(=O)N=C23)C1` [Example 4, (S)-8-bromo-4-(3-(methylamino)pyrrolidin-1-yl)imidazo[1.2-a]pyrido[2.3-e]pyrazin-2(1H)-one] it is -4.38%. As to `CN1CCN(C2=Nc3ccc(Br)cc3N3CC(=O)NN=C23)CC1` [Example 14, 9-bromo-5-(4-methylpiperazin-1-yl)-1H -[1,2,4]triazino[43-a]quinoxalin-2(3H)-one], the inhibition at 1 µM was 52.6%. Consider `O=C1CN2C(=N1)C(N1CCN3CCCC3C1)=Nc1ncc(Br)cc12` (stereo not shown) [Example 5, 8-bromo-4-(hexahydropyrrolo[1,2-a]pyrazin-2(1H)-yl)imidazo[1,2-a]pyrido[2,3-e]pyrazin-2(1H)-one], for which the inhibition at 1 µM turned out to be 55.9%.

For the compound `CN[C@@H]1CCN(C2=Nc3ncc(Br)cc3N3CC(=O)N=C23)C1` [Example 3, (R)-8-bromo-4-(3-(methylamino)pyrrolidin-1-yl)imidazo[1,2-a]pyrido[2,3-e]pyrazin-2(1H)-one], the inhibition at 1 µM is 9.8%. With `CNC1CN(C2=Nc3ncc(Br)cc3N3CC(=O)N=C23)C1` [Example 2, 8-bromo-4-(3-(methylamino)azetidin-1-yl)imidazo[1,2-a]pyrido[2,3-e]pyrazin-2(1H)-one] the figure was 39.5%; with `CNC1CN(C2=Nc3ncc(Cl)cc3N3CC(=O)N=C23)C1` [Example 20, 8-chloro-4-(3-(methylamino)azetidin-1-yl)imidazo[1,2-a]pyrido[2,3-e]pyrazin-2(1H)-one], 20.5%. For `CNC1CN(C2=Nc3ccc(Cl)cc3N3CC(=O)N=C23)C1` [Example 19, 8-chloro-4-(3-(methylamino)azetidin-1-yl)imidazo[1,2-a]quinoxalin-2(1H)-one], the inhibition at 1 µM worked out at 96%.

For the compound `CNC1CN(C2=Nc3ccc(Cl)nc3N3CC(=O)N=C23)C1` [Example 31, 2-chloro-6-(3-(methylamino)azetidin-1-yl)imidazo[1,2-a]pyrido[3,2-e]pyrazin-8(9H)-one], the inhibition at 1 µM was determined as 97.7%.

Regarding `CN1CCN(C2=Nc3nc(F)c(Br)cc3N3CC(=O)N=C23)CC1` [Example 9, 8-bromo-7-fluoro-4-(4-methylpiperazin-1-yl)imidazo[1.2-a]pyrido[2,3-e]pyrazin-2(1H)-one], the inhibition at 1 µM was 94.4%.

On to `CN1CCN(C2=Nc3ncc(Cl)cc3N3CC(=O)N=C23)CC1` [Example 17, 8-chloro-4-(4-methylpiperazin-1-yl)imidazo[1,2-a]pyrido[2,3-e]pyrazin-2(1H)-one], for which the inhibition at 1 µM turned out to be 87.1%.

With `CN1CCN(C2=Nc3cc(Cl)ncc3N3CC(=O)N=C23)CC1` [Example 22, 3-chloro-6-(4-methylpiperazin-1-yl)imidazo[1,2-a]pyrido[4,3-e]pyrazin-8(9H)-one], the inhibition at 1 µM worked out at 86.3%. As for `CNC1CN(C2=Nc3ccc(Br)cc3N3CC(=O)N=C23)C1` [Example 21, 8-bromo-4-(3-(methylamino)azetidin-1-yl)imidazo[1,2-a]quinoxalin-2(1H)-one hydrochloride], the inhibition at 1 µM amounted to 95.9%.
